Calls of active or inactive are those of the source. No cut-off for these calls is given here.
What was measured:
Acetylcholinesterase [1] = target: Acetylcholinesterase (Electrophorus electricus, UniProt O42275); experiment: Inhibition of Electric eel AChE using […] as substrate by spectrophotometry based Ellman's method
Cholinesterase = Cholinesterase (Canis lupus familiaris, UniProt P32750); experiment: Inhibition of dog serum BChE using butrylthiocholine iodide as substrate by spectrophotometry based Ellman's method
Cholinesterase, sequence (P32750 whole entry): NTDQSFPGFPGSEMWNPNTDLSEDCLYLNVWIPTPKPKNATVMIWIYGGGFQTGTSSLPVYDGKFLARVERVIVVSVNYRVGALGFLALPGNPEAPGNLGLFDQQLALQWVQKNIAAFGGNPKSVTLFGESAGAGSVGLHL

[2] = Selectivity index, ratio of IC50 for dog serum BChE to IC50 for Electric eel AChE
[3] = target: Acetylcholinesterase (Electrophorus electricus) (UniProt O42275); experiment: Competitive inhibition of Electric eel AChE using […] as substrate by spectrophotometry based Lineweaver-Burk plot analysis
Acetylcholinesterase (Electrophorus electricus), sequence (O42275 24-633 limits assumed): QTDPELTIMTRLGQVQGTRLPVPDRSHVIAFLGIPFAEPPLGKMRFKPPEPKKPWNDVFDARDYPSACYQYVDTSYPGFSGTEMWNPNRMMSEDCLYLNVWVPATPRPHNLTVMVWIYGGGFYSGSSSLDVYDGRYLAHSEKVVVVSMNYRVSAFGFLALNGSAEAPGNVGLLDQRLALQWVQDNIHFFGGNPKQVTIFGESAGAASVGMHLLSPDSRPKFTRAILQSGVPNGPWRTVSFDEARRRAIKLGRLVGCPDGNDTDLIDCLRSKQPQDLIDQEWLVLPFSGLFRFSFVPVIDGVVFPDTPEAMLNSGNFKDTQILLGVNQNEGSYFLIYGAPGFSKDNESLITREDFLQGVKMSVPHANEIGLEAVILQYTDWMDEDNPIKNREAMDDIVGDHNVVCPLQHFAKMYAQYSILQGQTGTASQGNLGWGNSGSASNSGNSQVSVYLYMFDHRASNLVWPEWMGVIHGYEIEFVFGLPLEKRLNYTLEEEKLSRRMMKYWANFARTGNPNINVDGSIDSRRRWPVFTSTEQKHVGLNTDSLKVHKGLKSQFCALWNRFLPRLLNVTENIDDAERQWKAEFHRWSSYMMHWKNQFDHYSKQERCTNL

Acetylcholinesterase [4] = target: T1, Acetylcholinesterase (Homo sapiens, UniProt P22303); experiment: Inhibition of AChE (unknown origin) using […] as substrate incubated for 15 mins by Ellman's method
T1 sequence (P22303 whole entry): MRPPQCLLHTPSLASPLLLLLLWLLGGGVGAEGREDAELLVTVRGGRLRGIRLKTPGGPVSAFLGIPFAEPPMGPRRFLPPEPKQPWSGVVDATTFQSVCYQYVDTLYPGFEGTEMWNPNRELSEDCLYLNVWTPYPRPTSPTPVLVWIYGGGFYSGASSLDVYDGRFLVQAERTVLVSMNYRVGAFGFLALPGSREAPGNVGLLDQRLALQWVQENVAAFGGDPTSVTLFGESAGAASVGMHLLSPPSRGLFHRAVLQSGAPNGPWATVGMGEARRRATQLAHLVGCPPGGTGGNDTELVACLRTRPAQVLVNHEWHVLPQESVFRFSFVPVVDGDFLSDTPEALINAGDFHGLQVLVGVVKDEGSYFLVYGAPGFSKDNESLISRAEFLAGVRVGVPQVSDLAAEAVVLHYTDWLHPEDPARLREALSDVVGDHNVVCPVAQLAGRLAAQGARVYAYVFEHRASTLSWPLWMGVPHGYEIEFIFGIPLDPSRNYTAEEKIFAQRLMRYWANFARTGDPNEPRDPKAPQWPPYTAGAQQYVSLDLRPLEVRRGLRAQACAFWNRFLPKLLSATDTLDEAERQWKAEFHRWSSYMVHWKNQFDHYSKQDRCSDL

Acetylcholinesterase [5] = target: T1, Acetylcholinesterase; experiment: Inhibition of AChE (unknown origin)

Acetylcholinesterase (Electrophorus electricus, UniProt O42275), sequence (O42275 whole entry): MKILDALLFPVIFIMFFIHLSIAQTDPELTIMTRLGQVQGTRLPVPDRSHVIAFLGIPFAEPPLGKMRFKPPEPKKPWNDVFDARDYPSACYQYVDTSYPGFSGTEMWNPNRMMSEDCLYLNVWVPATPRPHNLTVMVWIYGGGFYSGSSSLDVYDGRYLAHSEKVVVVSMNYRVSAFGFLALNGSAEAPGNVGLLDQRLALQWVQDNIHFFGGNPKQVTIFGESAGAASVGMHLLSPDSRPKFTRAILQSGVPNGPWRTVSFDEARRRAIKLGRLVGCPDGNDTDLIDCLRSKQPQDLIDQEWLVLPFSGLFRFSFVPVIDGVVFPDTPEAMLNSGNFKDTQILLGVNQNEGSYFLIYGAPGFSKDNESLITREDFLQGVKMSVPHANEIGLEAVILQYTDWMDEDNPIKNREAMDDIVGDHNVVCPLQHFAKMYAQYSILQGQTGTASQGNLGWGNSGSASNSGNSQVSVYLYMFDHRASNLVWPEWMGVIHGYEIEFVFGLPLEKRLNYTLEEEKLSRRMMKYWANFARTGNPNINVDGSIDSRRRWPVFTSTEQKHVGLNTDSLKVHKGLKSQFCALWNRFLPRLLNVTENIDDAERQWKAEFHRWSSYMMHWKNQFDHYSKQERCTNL

Row | SMILES | IC50 (Acetylcholinesterase [1]) [µM] | IC50 (Cholinesterase) [µM] | further results
1 | COc1ccc(CC(=O)Nc2ncc(-c3ccc(OCCCCNC4CCN(Cc5ccccc5)CC4)cc3)s2)cc1OC | 4.24 | 7.23 | –
2 | COc1ccc(CC(=O)Nc2ncc(-c3ccc(OCCN4CCCC4)cc3)s2)cc1OC | 6.31 | 23.9 | –
3 | COc1ccc(C(=O)Nc2ncc(-c3ccc(OCCCN4CCCC4)cc3)s2)cc1OC | 39.3 | 8.1 | –
4 | COc1ccc(CC(=O)Nc2ncc(-c3ccc(OCCCCN4CCN(Cc5ccccc5)CC4)cc3)s2)cc1OC | 5.75 | 41 | –
5 | COc1ccc(CC(=O)Nc2ncc(-c3ccc(OCCCN4CCCC4)cc3)s2)cc1 | 37.3 | 9.01 | –
6 | C/C=C1\[C@H]2C=C(C)C[C@]1(N)c1ccc(=O)[nH]c1C2 [HUPERZINE A] | – | > 10000 | –
7 | COc1ccc(CC(=O)Nc2ncc(-c3ccc(OCCCCN4CCCCC4)cc3)s2)cc1OC | 0.95 | 49.2 | Ratio IC50 [2]: 52
8 | COc1cc(CC(=O)Nc2ncc(-c3ccc(OCCCN4CCCC4)cc3)s2)cc(OC)c1OC | 7.84 | 17.3 | –
9 | COc1ccc(CC(=O)Nc2ncc(-c3ccc(OCCCCN4CCCC4)cc3)s2)cc1OC | 0.66 | 10.2 | Ratio IC50 [2]: 16; inhibition [3]: Active
10 | COc1ccc(CC(=O)Nc2ncc(-c3ccc(OCCCCCN4CCCC4)cc3)s2)cc1OC | 3.34 | 9.85 | –
11 | COc1ccc(CCC(=O)Nc2nc(-c3cc4ccccc4oc3=O)cs2)cc1OC | – | – | IC50 (Acetylcholinesterase [4]): 0.74 µM
12 | COc1ccc(CC(=O)Nc2ncc(-c3ccc(OCCCN4CCCC4)cc3)s2)cc1OC | 6.51 | 6.89 | –
13 | COc1ccc(-c2csc(NC(=O)CCN3CCCC3)n2)cc1 | – | – | IC50 (Acetylcholinesterase [5]): 0.51 µM
14 | CCN(C)C(=O)Oc1cccc([C@H](C)N(C)C)c1 [RIVASTIGMINE] | – | 6.27 | –
15 | COc1ccc(CC(=O)Nc2ncc(-c3ccc(OCCCCSc4ccncc4)cc3)s2)cc1OC | 5.5 | 14.3 | –

Reference: ChEMBL document CHEMBL4627271, “Design, synthesis and evaluation of new 4-arylthiazole-2-amine derivatives as acetylcholinesterase inhibitors” (Bioorg Med Chem Lett, 2020)
